Test [1] addresses T1, Receptor-interacting serine/threonine-protein kinase 4 (Homo sapiens) (UniProt P57078).
T1 sequence (whole entry): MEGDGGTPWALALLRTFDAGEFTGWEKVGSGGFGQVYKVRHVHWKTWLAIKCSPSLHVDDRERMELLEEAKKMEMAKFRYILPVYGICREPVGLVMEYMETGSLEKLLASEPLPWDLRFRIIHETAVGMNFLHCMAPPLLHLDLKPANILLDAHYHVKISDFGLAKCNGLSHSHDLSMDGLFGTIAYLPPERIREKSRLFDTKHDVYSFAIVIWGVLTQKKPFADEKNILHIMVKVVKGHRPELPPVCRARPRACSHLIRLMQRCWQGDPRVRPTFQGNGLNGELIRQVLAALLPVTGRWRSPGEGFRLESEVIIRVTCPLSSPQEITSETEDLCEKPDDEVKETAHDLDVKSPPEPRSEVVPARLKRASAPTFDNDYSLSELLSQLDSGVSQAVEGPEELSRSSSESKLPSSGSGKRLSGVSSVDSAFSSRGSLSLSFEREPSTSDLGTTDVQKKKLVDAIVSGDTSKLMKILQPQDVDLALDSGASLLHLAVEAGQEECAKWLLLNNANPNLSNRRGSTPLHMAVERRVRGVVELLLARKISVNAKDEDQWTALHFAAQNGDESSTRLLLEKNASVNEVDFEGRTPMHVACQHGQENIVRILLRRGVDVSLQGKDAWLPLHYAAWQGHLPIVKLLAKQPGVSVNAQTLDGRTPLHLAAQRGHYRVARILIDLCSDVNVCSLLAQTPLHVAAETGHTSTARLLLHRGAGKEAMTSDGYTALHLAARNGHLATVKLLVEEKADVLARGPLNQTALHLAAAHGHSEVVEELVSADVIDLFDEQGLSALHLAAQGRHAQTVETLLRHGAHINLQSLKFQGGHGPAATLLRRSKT
The experiment in a line: Selectivity interaction (KinomeScan (DiscoverX)) EUB0001079a RIPK4. The following applies: at 1 µM.

Test [2] has as its target T2, cGMP-dependent protein kinase 1 (Homo sapiens) (UniProt Q13976).
T2 sequence (whole entry): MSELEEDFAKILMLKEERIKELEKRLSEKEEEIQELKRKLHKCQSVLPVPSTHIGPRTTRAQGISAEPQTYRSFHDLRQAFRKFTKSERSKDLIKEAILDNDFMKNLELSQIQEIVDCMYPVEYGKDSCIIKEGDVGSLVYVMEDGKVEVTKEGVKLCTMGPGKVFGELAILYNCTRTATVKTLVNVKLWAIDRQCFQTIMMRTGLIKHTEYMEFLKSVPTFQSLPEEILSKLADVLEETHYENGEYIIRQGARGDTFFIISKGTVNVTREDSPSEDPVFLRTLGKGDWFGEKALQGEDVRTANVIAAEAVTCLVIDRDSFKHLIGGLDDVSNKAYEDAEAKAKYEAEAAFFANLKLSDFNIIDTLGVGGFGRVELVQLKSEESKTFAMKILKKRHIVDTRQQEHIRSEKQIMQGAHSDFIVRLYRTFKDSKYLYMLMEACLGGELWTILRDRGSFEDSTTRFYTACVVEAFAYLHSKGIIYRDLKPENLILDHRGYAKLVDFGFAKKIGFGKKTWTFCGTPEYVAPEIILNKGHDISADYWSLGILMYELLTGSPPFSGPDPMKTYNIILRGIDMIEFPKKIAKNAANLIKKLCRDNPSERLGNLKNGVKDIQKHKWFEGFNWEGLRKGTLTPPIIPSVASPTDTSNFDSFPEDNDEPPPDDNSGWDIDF
The experiment in a line: Selectivity interaction (KinomeScan (DiscoverX)) EUB0001079a PRKG1. Particulars: at 1 µM.

The target of test [3] is T3, Ephrin type-B receptor 1 (Homo sapiens) (UniProt P54762).
T3 sequence (whole entry): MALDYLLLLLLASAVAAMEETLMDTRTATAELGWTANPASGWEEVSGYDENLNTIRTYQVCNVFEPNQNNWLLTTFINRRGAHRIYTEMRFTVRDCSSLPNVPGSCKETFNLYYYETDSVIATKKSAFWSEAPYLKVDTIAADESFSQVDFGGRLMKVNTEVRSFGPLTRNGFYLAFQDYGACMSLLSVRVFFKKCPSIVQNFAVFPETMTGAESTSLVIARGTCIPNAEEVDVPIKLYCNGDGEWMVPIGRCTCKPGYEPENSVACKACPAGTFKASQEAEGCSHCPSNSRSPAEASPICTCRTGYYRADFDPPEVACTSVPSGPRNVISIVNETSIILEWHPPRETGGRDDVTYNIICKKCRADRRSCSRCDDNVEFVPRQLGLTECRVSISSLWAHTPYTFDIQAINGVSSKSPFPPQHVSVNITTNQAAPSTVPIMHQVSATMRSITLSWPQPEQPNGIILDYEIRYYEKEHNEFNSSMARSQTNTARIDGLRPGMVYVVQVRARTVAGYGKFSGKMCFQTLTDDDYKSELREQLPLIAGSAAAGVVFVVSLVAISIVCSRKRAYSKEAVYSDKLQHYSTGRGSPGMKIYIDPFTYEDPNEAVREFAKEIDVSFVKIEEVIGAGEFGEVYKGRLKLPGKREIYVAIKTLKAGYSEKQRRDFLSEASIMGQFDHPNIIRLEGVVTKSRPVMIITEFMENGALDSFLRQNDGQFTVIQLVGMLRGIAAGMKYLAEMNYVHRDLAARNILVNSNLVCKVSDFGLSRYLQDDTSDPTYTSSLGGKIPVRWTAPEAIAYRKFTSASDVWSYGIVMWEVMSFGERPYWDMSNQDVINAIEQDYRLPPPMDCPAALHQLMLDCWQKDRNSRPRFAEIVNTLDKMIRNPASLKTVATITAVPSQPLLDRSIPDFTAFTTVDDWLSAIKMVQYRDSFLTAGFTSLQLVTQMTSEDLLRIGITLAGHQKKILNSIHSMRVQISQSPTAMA
The experiment in a line: Selectivity interaction (Kinase panel (Invitrogen)) EUB0000639a EPHB1. Particulars: at 200 nM.

Test [4] deals with T4, Phosphatidylinositol 5-phosphate 4-kinase type-2 gamma (Homo sapiens) (UniProt Q8TBX8).
T4 sequence (whole entry): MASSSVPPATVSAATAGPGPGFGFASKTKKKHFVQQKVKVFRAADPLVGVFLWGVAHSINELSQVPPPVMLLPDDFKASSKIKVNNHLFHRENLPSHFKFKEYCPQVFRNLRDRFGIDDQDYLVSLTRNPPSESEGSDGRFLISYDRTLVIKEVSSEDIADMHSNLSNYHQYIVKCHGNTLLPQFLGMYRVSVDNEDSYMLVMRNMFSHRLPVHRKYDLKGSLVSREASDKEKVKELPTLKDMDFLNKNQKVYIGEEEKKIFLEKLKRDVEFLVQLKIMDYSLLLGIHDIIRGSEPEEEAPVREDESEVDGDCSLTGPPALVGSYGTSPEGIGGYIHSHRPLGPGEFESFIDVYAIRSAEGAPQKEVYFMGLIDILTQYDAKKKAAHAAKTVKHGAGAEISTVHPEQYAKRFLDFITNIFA
Put plainly: Selectivity interaction (KinomeScan (DiscoverX)) EUB0000695a PIP4K2C. Particulars: at 100 nM.

Take `Nc1cnc(N2CCc3cc(S(=O)(=O)Nc4c(F)cc(Cl)cc4F)cc(N4CCCC4=O)c32)nc1` [TP-020n]: the % of control in test [1] was 76%; in test [2], 97%. Consider `CC[C@@H]1[C@H](F)C(=O)N[C@@H]1COc1nccc2cc(C(N)=O)c(OC)cc12` [ZIMLOVISERTIB], for which the % of inhibition in test [3] is 1.6%. Consider `Cc1cc(F)c(C(=O)Nc2cccc(-c3nncn3C(C)C)n2)cc1-n1cnc(C2CC2)c1`, for which the % of control in test [4] is 100%.

These data come from ChEMBL document CHEMBL5465560, “Selectivity Literature for EUbOPEN Chemogenomic Library” (2024).
